For series [1] the following is noted: literature (Bertsch et al.); cited from earlier work.
Series [2] is described as follows: Potentiometric titrations: protonation constants. The class given is physicochemical. The following applies: potentiometry, 0.1 M KCl, 25° C.; for Protonation constant (log K) 2H+ + L ⇄ H2L2+ / Protonation constant (log K) 3H+ + L ⇄ H3L3+ / Protonation constant (log K) 4H+ + L ⇄ H4L4+: cumulative; for Protonation constant (log K) H+ + H2L2+ ⇄ H3L3+ / Protonation constant (log K) H+ + H3L3+ ⇄ H4L4+ / Protonation constant (log K) H+ + HL+ ⇄ H2L2+: stepwise. The method, then: (§1) Potentiometric measurements were conducted using a Metrohm 792SM Titrino automated burette fitted with a combined glass electrode and an in-house designed jacketed glass cell thermostated at 25° C. suitable for small sample volumes (5 mL). The cell was sealed under an inert atmosphere. All solutions were made up using ultrapure CO2-free water from a Millipore Simplicity 185 system. The sample solutions contained 0.1 M KCl as a background electrolyte. The titrant base was made up from commercial (Riedel-de Haën) CO2-free concentrates of KOH, diluted to the required concentration (0.020 M) with a 0.080 M KCl solution to avoid problems of different ionic strengths. The glass electrode was calibrated by titrating well-known amounts of HCl (made up from Riedel-de Haën concentrates) with the base and determining the equivalence point using Gran's method (G. Gran, Analyst, 1952, 77, 661-671) yielding the ionic product of water (pKw=13.78), which was used as a constant in the subsequent analyses.
(§2) Sample concentrations were typically 1.0-5.0×10^−3 M. A known excess of HCl was added to ensure full protonation of the receptor. The degree of protonation of our receptors was calculated from the onset of titration curve. […] A minimum of 250 points in the pH-range of 2.5-11.0 was taken for every titration, with at least 30 seconds between each addition to ensure equilibration. The computer program […]^I was used to determine the protonation and stability constants. For each system a minimum of three titrations were first treated as individual sets and then merged and fitted simultaneously to give the final constants.
To study the binding in more detail we used potentiometry. To enable this, we first investigated the protonation constants of the receptors and the data is collected in Table 1. We calibrated our system with spermine (compound 4) and the data for this compound are also included in this table and were in accordance with literature values (Bazzicalupi et al, J. Am. Chem. Soc. 121: 6807-6815 (1999); De Stefano et al., J. Chem. Soc. Faraday Trans, 94:1091-1095 (1998); Bergeron et al., J. Med. Chem. 38:2278-2285 (1995)).

Series [3] in a line: Potentiometric titrations: binding of inorganic phosphate (equimolar KH2PO4 and receptor). The following applies: for Binding constant (Log K) H3L3+ + HA2− ⇄ H4LA+ / Binding constant (Log K) H4L4+ + HA2− ⇄ H5LA2+ / Protonation and binding constant (Log K) 4H+ + L + A3− ⇄ H4LA+ / Protonation and binding constant (Log K) 5H+ + L + A3− ⇄ H5LA2+ / Binding constant (Log K) H2L2+ + HA2− ⇄ H3LA / Binding constant (Log K) H4L4+ + H2A− ⇄ H6LA3+ / Protonation and binding constant (Log K) 3H+ + L + A3− ⇄ H3LA / Protonation and binding constant (Log K) 6H+ + L + A3− ⇄ H6LA3+: A = phosphate, 0.1 M KCl, 25° C.; for Binding constant (Log K) H3L3+ + HA2− ⇄ H4LA+ / Binding constant (Log K) H4L4+ + HA2− ⇄ H5LA2+ / Protonation and binding constant (Log K) 4H+ + L + A3− ⇄ H4LA+ / Protonation and binding constant (Log K) 5H+ + L + A3− ⇄ H5LA2+ / affinity towards inorganic phosphate (log K), range over protonation states / Binding constant (Log K) H2L2+ + HA2− ⇄ H3LA / Binding constant (Log K) H4L4+ + H2A− ⇄ H6LA3+ / Protonation and binding constant (Log K) 3H+ + L + A3− ⇄ H3LA / Protonation and binding constant (Log K) 6H+ + L + A3− ⇄ H6LA3+: potentiometry; for Protonation and binding constant (Log K) 4H+ + L + A3− ⇄ H4LA+ / Protonation and binding constant (Log K) 5H+ + L + A3− ⇄ H5LA2+ / Protonation and binding constant (Log K) 3H+ + L + A3− ⇄ H3LA / Protonation and binding constant (Log K) 6H+ + L + A3− ⇄ H6LA3+: overall constant; for phosphate in solution bound by receptor: pH 7.0, from speciation diagrams of potentiometric data (FIG. 4); for affinity towards inorganic phosphate (log K), range over protonation states: summary of Table 2; for Binding constant (Log K) H2L2+ + HA2− ⇄ H3LA / Binding constant (Log K) H4L4+ + H2A− ⇄ H6LA3+ / Protonation and binding constant (Log K) 3H+ + L + A3− ⇄ H3LA / Protonation and binding constant (Log K) 6H+ + L + A3− ⇄ H6LA3+: dash = equilibrium does not occur significantly. As to the method:
as §1, §2

A short description of series [4]: Fluorimetric titrations: quenching of fluorescent phosphate derivative 13. The following applies: 1:1 binding model; 0.1 M TRIS buffer pH 7.0; 13 at 5.0×10^−6 M. As to the method:
Titrations were performed on a Spex Fluoromax-II instrument at 25° C. in a 0.1 M TRIS buffer of pH 7.0, using an excitation wavelength of 324 nm.
Upon titration of our receptors to a solution of this probe in buffered water (0.1 M Tris, pH 7.0) the emission of compound 13 was quenched indicating binding (FIG. 3).
This is related to the trans configuration of the oligoamines around the conformationally restricted scaffold in compound 1 preventing the oligoamines from cooperating.

Turning to `NCCN` [1,2-diaminoethane], in series [1], the “first protonation pKa” value is recorded as 10.1 and the “second protonation pKa” value is recorded as 7.0.

In the case of `NCCCN` [1,3-diaminopropane], in series [1], the “first protonation pKa” value is 10.6 and the “second protonation pKa” value is reported as 8.6.

As for `NCCCCN` [1,4-diaminobutane], in series [1], the “second protonation pKa” value was 9.4.

For `CN(CCCN)CCCNC(=O)/C=C/C(=O)NCCCN(C)CCCN` [Compound 1], in series [2], the “Protonation constant (log K) 2H+ + L ⇄ H2L2+” value stood at 20.05, the “Protonation constant (log K) 3H+ + L ⇄ H3L3+” value worked out at 28.42, the “Protonation constant (log K) 4H+ + L ⇄ H4L4+” value was 35.50 and the “Protonation constant (log K) H+ + L ⇄ HL+” value is listed as 10.45. For the same compound, in series [2], the “Protonation constant (log K) H+ + H2L2+ ⇄ H3L3+” value was 8.37, the “Protonation constant (log K) H+ + H3L3+ ⇄ H4L4+” value was determined as 7.08 and the “Protonation constant (log K) H+ + HL+ ⇄ H2L2+” value is 9.60. In series [3], the “Binding constant (Log K) H3L3+ + HA2− ⇄ H4LA+” value was 2.90; the “Binding constant (Log K) H4L4+ + HA2− ⇄ H5LA2+” value is listed as 3.39; the “Protonation and binding constant (Log K) 4H+ + L + A3− ⇄ H4LA+” value is given as 42.87; the “Protonation and binding constant (Log K) 5H+ + L + A3− ⇄ H5LA2+” value amounted to 50.44. Further, in series [3], the “phosphate in solution bound by receptor” value came out at 31% and the “affinity towards inorganic phosphate (log K), range over protonation states” value was 2.9-3.4. Besides, the “binding constant (log K) for fluorescent phosphate derivative 13” value in series [4] was “no significant binding occurs”.

For `CN(CCCN)CCCNC(=O)/C=C\C(=O)NCCCN(C)CCCN` [Compound 2], in series [2], the “Protonation constant (log K) 2H+ + L ⇄ H2L2+” value was 19.06, the “Protonation constant (log K) 3H+ + L ⇄ H3L3+” value was 26.52, the “Protonation constant (log K) 4H+ + L ⇄ H4L4+” value amounted to 30.27 and the “Protonation constant (log K) H+ + L ⇄ HL+” value turned out to be 10.04. In series [2], the “Protonation constant (log K) H+ + H2L2+ ⇄ H3L3+” value worked out at 7.46, the “Protonation constant (log K) H+ + H3L3+ ⇄ H4L4+” value was found to be 3.75 and the “Protonation constant (log K) H+ + HL+ ⇄ H2L2+” value amounted to 9.02. For the same compound, in series [3], the “Binding constant (Log K) H3L3+ + HA2− ⇄ H4LA+” value stood at 5.27, the “Binding constant (Log K) H4L4+ + HA2− ⇄ H5LA2+” value is on record as 8.55, the “Binding constant (Log K) H2L2+ + HA2− ⇄ H3LA” value turned out to be 4.40 and the “Binding constant (Log K) H4L4+ + H2A− ⇄ H6LA3+” value was determined as 7.67. In series [3], the “Protonation and binding constant (Log K) 4H+ + L + A3− ⇄ H4LA+” value is on record as 43.27 (7); the “Protonation and binding constant (Log K) 5H+ + L + A3− ⇄ H5LA2+” value was 50.30 (7); the “Protonation and binding constant (Log K) 3H+ + L + A3− ⇄ H3LA” value is given as 34.94 (4); the “Protonation and binding constant (Log K) 6H+ + L + A3− ⇄ H6LA3+” value is recorded as 56.33 (9). In addition, in series [3], the “phosphate in solution bound by receptor” value is given as 95% and the “affinity towards inorganic phosphate (log K), range over protonation states” value is recorded as 4.4-8.6. Moreover, the “binding constant (log K) for fluorescent phosphate derivative 13” value in series [4] was 5.15.

`CN1CCCNCc2cccc(c2)CNCCCN(C)CCCNC(=O)/C=C\C(=O)NCCC1` [Compound 3]: in series [2], the “Protonation constant (log K) 2H+ + L ⇄ H2L2+” value worked out at 18.82, the “Protonation constant (log K) 3H+ + L ⇄ H3L3+” value is on record as 25.14, the “Protonation constant (log K) 4H+ + L ⇄ H4L4+” value is 28.11 and the “Protonation constant (log K) H+ + L ⇄ HL+” value was determined as 10.32. Moreover, in series [2], the “Protonation constant (log K) H+ + H2L2+ ⇄ H3L3+” value worked out at 6.32, the “Protonation constant (log K) H+ + H3L3+ ⇄ H4L4+” value amounted to 2.97 and the “Protonation constant (log K) H+ + HL+ ⇄ H2L2+” value worked out at 8.50. In series [3], the “Binding constant (Log K) H3L3+ + HA2− ⇄ H4LA+” value was 10.24; the “Binding constant (Log K) H2L2+ + HA2− ⇄ H3LA” value is reported as 7.53; the “Binding constant (Log K) H4L4+ + H2A− ⇄ H6LA3+” value came to 10.90; the “Protonation and binding constant (Log K) 4H+ + L + A3− ⇄ H4LA+” value is given as 46.85 (4). In addition, in series [3], the “Protonation and binding constant (Log K) 5H+ + L + A3− ⇄ H5LA2+” value is reported as 53.76 (5); the “Protonation and binding constant (Log K) 3H+ + L + A3− ⇄ H3LA” value was 37.83 (4); the “Protonation and binding constant (Log K) 6H+ + L + A3− ⇄ H6LA3+” value was 57.40 (5). Further, the “binding constant (log K) for fluorescent phosphate derivative 13” value in series [4] turned out to be 5.30.

Turning to `NCCCNCCCCNCCCN` [Compound 4, spermine, reference compound], in series [2], the “Protonation constant (log K) 2H+ + L ⇄ H2L2+” value is given as 20.63, the “Protonation constant (log K) 3H+ + L ⇄ H3L3+” value was found to be 29.50, the “Protonation constant (log K) 4H+ + L ⇄ H4L4+” value was 37.58 and the “Protonation constant (log K) H+ + L ⇄ HL+” value turned out to be 10.64. Moreover, in series [2], the “Protonation constant (log K) H+ + H2L2+ ⇄ H3L3+” value is given as 8.87, the “Protonation constant (log K) H+ + H3L3+ ⇄ H4L4+” value was 8.08 and the “Protonation constant (log K) H+ + HL+ ⇄ H2L2+” value stood at 9.99.

For the compound `CN(CCCN)CCCNC(=O)[C@@H]1C2C=CC(C2)[C@H]1C(=O)NCCCN(C)CCCN` [Compound 14], in series [2], the “Protonation constant (log K) 2H+ + L ⇄ H2L2+” value came to 18.49, the “Protonation constant (log K) 3H+ + L ⇄ H3L3+” value was determined as 25.67, the “Protonation constant (log K) 4H+ + L ⇄ H4L4+” value was determined as 27.91 and the “Protonation constant (log K) H+ + L ⇄ HL+” value is listed as 9.76. Moreover, in series [2], the “Protonation constant (log K) H+ + H2L2+ ⇄ H3L3+” value is given as 7.18, the “Protonation constant (log K) H+ + H3L3+ ⇄ H4L4+” value is on record as 2.24 and the “Protonation constant (log K) H+ + HL+ ⇄ H2L2+” value worked out at 8.73. In series [3], the “Binding constant (Log K) H3L3+ + HA2− ⇄ H4LA+” value came out at 5.52, the “Binding constant (Log K) H4L4+ + HA2− ⇄ H5LA2+” value was determined as 10.70, the “Binding constant (Log K) H2L2+ + HA2− ⇄ H3LA” value is given as 4.37 and the “Binding constant (Log K) H4L4+ + H2A− ⇄ H6LA3+” value came out at 10.17. In series [3], the “Protonation and binding constant (Log K) 4H+ + L + A3− ⇄ H4LA+” value is 42.67 (3); the “Protonation and binding constant (Log K) 5H+ + L + A3− ⇄ H5LA2+” value is listed as 50.09 (3); the “Protonation and binding constant (Log K) 3H+ + L + A3− ⇄ H3LA” value is given as 34.34 (3); the “Protonation and binding constant (Log K) 6H+ + L + A3− ⇄ H6LA3+” value is on record as 56.47 (3). In addition, the “phosphate in solution bound by receptor” value in series [3] is 95%.
